The values that follow come from PMC5760651, “Peptidomimetic blockade of MYB in acute myeloid leukemia” (Nature Communications, 2018).

One assay concerns MYB:CBP/P300 complex. Nature of the assay: Co-immunoprecipitation of MYB:CBP/P300 complex from MV-411 cells. The assay is classed as binding, human. Conditions: 20 μM, immunoprecipitation with anti-MYB, 3 h, 4 °C, western blot. On the procedure: Cells were lysed in RIPA buffer (Thermo Fisher) supplemented with a protease inhibitor mix comprised of AEBSF (0.5 mM concentration, Santa Cruz, SC-202041B), Bestatin (0.01 mM, Fisher/Alfa Aesar, J61106-MD), Leupeptin (0.1 mM, Santa Cruz, SC-295358B), and Pepstatin (0.001 mM, Santa Cruz, SC-45036A). Lysates were mechanically disrupted using Covaris S220 adaptive focused sonicator, according to the manufacturer’s instructions (Covaris, Woburn, CA). Lysates were cleared by centrifugation for 15 min at 18,000 × g and clarified lysates were quantified using the bicinchoninic acid assay (Pierce). Clarified lysates (20 μg of protein) were resolved using sodium dodecyl sulfate-polyacrylamide gel electrophoresis, and electroeluted using the Immobilon FL PVDF membranes (Millipore, Billerica, MA, USA). Membranes were blocked using the Odyssey Blocking buffer (Li-Cor, Lincoln, Nebraska, USA). The following primary antibodies were used as indicated: anti-MYB (1:1000, 05-175, Millipore), anti-CBP (1:1000, PA1-847, Invitrogen), anti-BCL2 (1:1000, 200-401-222, Rockland), anti-β actin (1:1000, 8H10D10, Cell Signaling). […] Blotted membranes were visualized using secondary antibodies conjugated to IRDye 800CW or IRDye 680RD (Goat anti-rabbit, 1:15,000, and goat anti-mouse, 1:15,000) and the Odyssey CLx fluorescence scanner, according to manufacturer’s instructions (Li-Cor, Lincoln, Nebraska, USA). […]
(In general: In western blotting, separated proteins are transferred to a membrane and probed.)

Assay [1] concerns MOLM-13, MV-411, ML-2 and HL-60 cells. Nature of the assay: Cell viability of AML cell lines. Type of assay: cell-based, human. Conditions: 6 days, 20 μM TG1, TG2 or TG3, 10 and 20 μM MYBMIM, peptide replacement every 48 h, compared to untreated control. On the procedure: Cells were resuspended and plated at a concentration of 2 × 10^5 cells in 200 μl in 96-well tissue culture plates. Media with peptides was replaced every 48 h. To assess the number of viable cells, cells were resuspended in PBS and 10 µl of suspension was mixed in a 1:1 ratio with 0.4% Trypan Blue (Thermo Fisher) and counted using a hemacytometer (Hausser Scientific, Horsham, PA, USA). To assess viability using an ATP-based assay, cell viability was assessed using the CellTiter-Glo Luminescent Viability assay, according to the manufacturer’s instructions (Promega). Luminescence was recorded using the Infinite M1000Pro plate reader using integration time of 250 ms (Tecan).

The subject of assay [2] is primary patient-derived MLL-rearranged leukemia cells in NSG mice. Nature of the assay: Patient-derived MLL-rearranged leukemia xenograft, treatment upon peripheral leukemia. The assay is classed as in vivo, mouse. Conditions: vs vehicle. On the procedure:
All mouse experiments were carried out in accordance with the Memorial Sloan Kettering Institutional Animal Care and Use Committee. For toxicity studies, female C57BL/6J mice (The Jackson Laboratory, Bar Harbor, Maine, USA) were treated with MYBMIM peptide suspended in PBS and administered daily through intraperitoneal injection at a dose of 25 mg/kg for a total of 7 days. Mice were sacrificed at the end of treatment for hematologic, biochemical and histologic analyses. For pharmacokinetic studies, C57BL/6J mice (The Jackson Laboratory, Bar Harbor, Maine, USA) were treated with a single IP injection of 25 mg/kg BIO-MYBMIM, and blood plasma was collected 30 min, 2 h, 4 h, and 24 h post-injection. Quantification of BIO-MYBMIM was measured using the Quant-Tag Biotin kit (Vector Labs, cat. # BDK-2000) following the manufacturer instructions. For patient-derived xenografts, two hundred thousand primary AML MLL-rearranged leukemia cells were suspended in […] of PBS and transplanted via tail vein injection into 8-week-old sublethally irradiated (200 rad) female NOD.Cg-Prkdc(scid)Il2rg(tm1Wjl)/SzJ mice (The Jackson Laboratory, Bar Harbor, Maine, USA). Recipient mice were maintained on antibiotic supplementation in chow (0.025% trimethoprim, 0.124% sulfamethoxazole, Sulfatrim). Three days after transplant, mice were randomly assigned to experimental treatment groups. […]
(Xenograft models place foreign cells or tissue in a host animal.)

Non-standard residues stand in square brackets, D forms with d. Residues, ends and D or L forms follow the SMILES beside them.

In the case of `CC[C@@H](C)[C@@H](NC(=O)[C@@H](CCCCN)NC(=O)[C@@H](CCC(=O)O)NC(=O)[C@@H](CC(C)C)NC(=O)[C@@H](CCC(=O)O)NC(=O)[C@@H](CC(C)C)NC(=O)[C@@H](CC(C)C)NC(=O)[C@@H](CC(C)C)NC(=O)[C@@H](CCSC)NC(=O)[C@@H](CO)NC(=O)[C@H](NC(=O)[C@@H](CCC(=O)O)NC(=O)[C@@H](CC(N)=O)NC(=O)[C@@H](CCC(=O)O)NC(=O)[C@@H](CC(C)C)NC(=O)[C@@H](CCCCN)NC(C)=O)[C@H](C)O)C(=O)N[C@H](CCCNC(=N)N)C(=O)N[C@H](CCCCN)C(=O)NCC(=O)NCC(=O)N[C@H](CCCNC(=N)N)C(=O)N[C@H](CCCNC(=N)N)C(=O)N[C@H](CCCNC(=N)N)C(=O)N[C@H](CCC(N)=O)C(=O)N[C@H](CCCNC(=N)N)C(=O)N[C@H](CCCNC(=N)N)C(=O)N[C@H](CCCCN)C(=O)N[C@H](CCCCN)C(=O)N[C@H](CCCNC(=N)N)C(=O)NCC(=O)N[C@H](Cc1ccc(O)cc1)C(N)=O` [MYBMIM] (Ac-[dK][dL][dE][dN][dE][dT][dS][dM][dL][dL][dL][dE][dL][dE][dK][dI][dR][dK]GG[dR][dR][dR][dQ][dR][dR][dK][dK][dR]G[dY]-NH2), the “Dissociation of the cellular MYB:CBP/P300 complex” value with MYB:CBP/P300 complex is given as “significant dissociation”. In addition, in assay [1], the “Growth of AML cell lines” value is recorded as “sustained, logarithmic reduction of growth”. In addition, the “Leukemia burden by bone marrow analysis of human leukemia cells (hCD45)” value in assay [2] (NSG mice, 25 mg/kg IP twice daily, 21 days, 6 mice, p = 1.2e-4) was “significant reduction in leukemia burden”. Also, the “Levels of BCL2 in residual leukemia cells in the bone marrow” value in assay [2] (quantitative immunofluorescence, p = 0.3) is reported as “minimal reduction”.
